Like-named read-outs stand apart in the source and are kept apart here.
Columns and labels:
Histone H4 = assay: Western blot of parasite extracts with anti-acetyl histone 4 antibody; format: cell-based, Plasmodium; details: mixed stage culture, EC90 concentrations, 4 hrs
Procedure: Mixed stage culture was incubated with EC90 concentrations of 130134 Analog 2 and PF1070A for 4 hrs and cell free parasite extracts were subjected to western blot analysis using anti-acetyl histone 4 antibody.
Of the hits found, several have known targets in other model systems, allowing us to expedite target analysis. One such compound is Chlamydocin, a known Class I HDAC inhibitor. Western blot analysis of Plasmodium extracts confirms that analogs of this compound causes hyperacetylation of histone 4 and is suspected to target Plasmodium HDAC1.

P. falciparum Dd2 = assay: SYBR Green I-based fluorescence assay, intraerythrocytic growth inhibition; format: cell-based, Plasmodium falciparum
From the text: (§1) In the pursuit to discover next generation of antimalarials from novel areas of chemical space, a large library of diverse fungi was screened to discover secondary metabolites active against malaria parasite. […] The Cichewicz fungal collection contains tens of thousands of fungal isolates that were secured from diverse habitats and ecological niches across the United States. It is believed that fungal secondary metabolites, which are underexplored for antimalarial drug discovery, provide a unique opportunity to explore medicinally relevant, but untapped chemical space for the discovery of essential malaria therapeutics. Libraries of 750 pure compounds, and of 460 extracts obtained from diverse fungal sources have been screened for their ability to inhibit intraerythrocytic growth of chloroquine-resistant P. falciparum Dd2 using a SYBR Green I-based fluorescence assay. As a counter screen, the cytotoxicity of the top ten extracts in HepG2 cells was evaluated using the MTS ((3-(4,5 dimethylthiazol-2-yl)-5-(3-carboxymethoxyphenyl)-2-(4-sulfophenyl)-2H-tetrazolium, inner salt) cell proliferation assay. This screening has identified potent and selective novel antiplasmodial compounds. These unique pharmacophores from wide areas of chemical space would provide chemical starting points to develop lead compounds for drugs against malaria.
Ten millimolar compound stocks in DMSO were diluted by ½, ⅕, and/or 1/10 fold dilutions in ultrapure water or RPMI 1640. Varying concentrations of compound were added to culture at a 1% parasitemia and 2% hematocrit in 96-well black plates. Assay conditions maintained maximum DMSO concentrations less than 0.125% per dilution. Positive (baseline 0% growth) controls consisted of Chloroquine at 1 μM final concentration. Following 72 h incubation at 37° C. in 5% CO2, dilution plates were frozen at −80° C. for a minimum of 30 minutes. Dilution plates were allowed to thaw followed by lysis treatment and SYBR Green I incorporation. DNA quantification was determined using a fluorescence reading on a Synergy H4 multimode plate reader set at 485 nm excitation and 530 nm emission as previously reported (Roberts, Iyamu et al. 2016). EC50 was calculated from a dose response curve that was generated from a concentration range of 0-10 μM using GraphPad Prism v5.0.
Different dilutions of the compound/fraction in 1 μl of the culture medium were added to 99 μl of P. falciparum culture at a 1% parasitemia and 2% hematocrit in 96-well plates. Maximum DMSO concentration in the culture never exceeded 0.125%. Chloroquine at 1 μM was used as a positive control to determine the baseline value. Following 72 hours incubation at 37° C., the plates were frozen at −80° C. After thawing, 100 μL of lysis buffer (with SYBR Green I dye 1:10,000) was added to each well and plates were incubated at room temperature for 30 minutes prior to reading.
Culture was maintained following a modified Trager and Jensen protocol.^xxv Multi-drug resistant P. falciparum line Dd2 was grown in RPMI 1640 supplemented with 25 mM HEPES pH 7.4, 26 mM NaHCO3, 2% dextrose, 15 mg/L hypoxanthine, 25 mg/L gentamycin and 0.5% Albumax II in human A+ erythrocytes. Culture was maintained at 4% hematocrit at 37° C. with 5% CO2.
Plates were subsequently frozen at −80° C. to facilitate lysis. After thawing, plates were incubated with 1×SYBR Green I in lysis buffer (20 mM Tris-HCl, 0.08% saponin, 5 mM EDTA, 0.8% Triton X-100) for 45-60 min at room temperature. Fluorescence was measured at an excitation wavelength 485 nm, emission 530 nm in a Synergy Neo2 multi-mode reader (BioTek, Winsooki, Vt.). RFUs were normalized based on chloroquine treated and no treatment controls. For all compounds listed, serial dilutions were prepared in RPMI with final assay conditions of 0.2% DMSO or below.

HepG2 human hepatocytes = assay: MTS cytotoxicity assay in HepG2 cells (counter screen, selectivity); format: cell-based; details: for Selectivity Index: Hep G2 cell EC50 : P. falciparum EC50, pure compound library hits
From the text: as §1
Cross selectivity for human cells was determined using HepG2 human hepatocytes and an MTS (3-(4,5-Dimethylthiazol-2-yl)-5-(3-carboxymethoxyphenyl)-2-(4-sulfophenyl)-2H-tetrazolium) based cytotoxicity assay. After seeding 2,250 cells per well into 384-well microtiter plates, cells were incubated for 24 h. Next, serial dilutions of compounds were added to the seeded plates and incubated for additional 48 h at 37° C., and 5% CO2. Zero percent growth control wells were incubated with 5% Triton X-100 for 5 min prior to MTS addition and incubated for 4 h at identical growth conditions. Absorbance was then read at 490 nm in a Synergy Neo2 multi-mode reader (BioTek, Winsooki, Vt.) and values were normalized based on detergent lysed and no treatment controls.

trophozoites = assay: IFA and western blot for acetylation after treatment at 6 HPI; format: cell-based; details: culture followed until 54 HPI
From the text: Culture followed until 54 HPI. Scale bar represents 1 micron.
(§2) Culture followed until 54 HPI. Scale bar represents 1 micron. FIG. 10(B) is a western blot showing acetylation following treatment at 6 HPI with 137LJ57K, initial impure extract of 137LJ57K1.

PfHDAC1 = PfHDAC1 (Plasmodium falciparum, UniProt Q7K6A1); assay: PfHDAC1 assay; format: biochemical
From the text: as §2
FIGS. 17-20 provide multiple versions of cyclic tetrapeptides along with their EC50s for various noted assays including Pf, Hep G2 and PfHDAC1 assays

P. falciparum = details: literature; cited from earlier work
[1] = Plasmodium falciparum, DD2, 72 h
[2] = Plasmodium falciparum, Top hits from pure compound library, chloroquine-resistant P. falciparum Dd2, 72 h, read-out: EC50

PfHDAC1, sequence (Q7K6A1 entry or part of it): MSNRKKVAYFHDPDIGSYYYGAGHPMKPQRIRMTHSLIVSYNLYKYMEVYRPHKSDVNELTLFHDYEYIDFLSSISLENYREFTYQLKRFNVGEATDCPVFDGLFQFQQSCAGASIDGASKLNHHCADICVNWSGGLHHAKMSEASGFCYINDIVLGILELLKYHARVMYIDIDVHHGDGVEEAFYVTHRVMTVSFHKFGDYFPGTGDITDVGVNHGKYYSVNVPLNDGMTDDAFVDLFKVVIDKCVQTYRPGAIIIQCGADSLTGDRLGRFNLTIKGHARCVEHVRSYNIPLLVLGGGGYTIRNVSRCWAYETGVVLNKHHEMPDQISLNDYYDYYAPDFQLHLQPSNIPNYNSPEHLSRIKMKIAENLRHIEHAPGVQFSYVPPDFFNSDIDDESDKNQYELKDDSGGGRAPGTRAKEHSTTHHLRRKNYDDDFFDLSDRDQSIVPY

## CC1NC(=O)C(CCCCCC(=O)C2CO2)NC(=O)C2CCCN2C(=O)C(Cc2ccccc2)NC1=O (centres unmarked) [130134 Analog 1, 1-Alanine-chlamydocin]
Histone H4
  hyperacetylation of Histone H4: causes hyperacetylation of Histone H4
P. falciparum Dd2; [1]
  EC50: 9 nM
HepG2 human hepatocytes
  Selectivity Index: 3

## CCC(C)C1NC(=O)C(Cc2ccccc2)NC(=O)C(CCCCCC(=O)C2CO2)NC(=O)C2CCCCN2C1=O (centres unmarked) [130134 Analog 2, PF1070A]
Histone H4
  hyperacetylation of Histone H4: causes hyperacetylation of Histone H4
P. falciparum Dd2; [1]
  EC50: 37 nM
P. falciparum Dd2; Plasmodium falciparum, DD2, read-out: EC50 against multidrug resistant malaria
  EC50: 37 nM
HepG2 human hepatocytes
  selectivity (in words): selective
  Selectivity Index: >23

## CCC(C)C1NC(=O)C(Cc2ccccc2)NC(=O)C(CCCCCC(=O)C2CO2)NC(=O)C2CCCCN2C1=O (centres unmarked) [Compound 137LJ57K1]
trophozoites
  hyperacetylation: hyperacetylation during trophozoite stage
PfHDAC1
  EC50: < 0.2 nM
P. falciparum Dd2; Plasmodium falciparum, DD2, read-out: Dd2 EC50 (nM)
  EC50: 88 nM
HepG2 human hepatocytes; Homo sapiens, HepG2
  EC50: 13100 nM

## C/C1=C\[C@H](C)C[C@H](C)CC(=O)C[C@H](c2ccc(O)cc2)NC(=O)[C@@H](Cc2c(Br)[nH]c3ccccc23)N(C)C(=O)[C@H](C)NC(=O)[C@@H](C)C1 [Compound 120030]
P. falciparum Dd2; [1]
  EC50: 271 nM
HepG2 human hepatocytes
  Selectivity Index: >92.25

## C=C1[C@@H](O)[C@@H]2O[C@]3(CC[C@H](/C=C/[C@@H](C)[C@@H]4CC(C)=C[C@@]5(O[C@H](C[C@@](C)(O)C(=O)O)CC[C@H]5O)O4)O3)CC[C@H]2O[C@@H]1[C@@H](O)C[C@H](C)[C@H]1O[C@@]2(CCCCO2)CC[C@H]1C [Compound 120033]
P. falciparum Dd2; [1]
  EC50: 55 nM
HepG2 human hepatocytes
  Selectivity Index: >77

## COC1=CC(c2ccc[nH]2)=N/C1=C/NCC(C)C [Compound 120036]
P. falciparum Dd2; [2]
  EC50: 180 nM
HepG2 human hepatocytes
  Selectivity Index: 57.31

## Oc1cc(O)c2c(c1)O[C@H](c1ccc(O)c(O)c1)[C@@H](O)C2 [Compound 120051]
P. falciparum Dd2; [2]
  EC50: 47 nM
HepG2 human hepatocytes
  Selectivity Index: 11.44

## C[C@@]12OC(=O)[C@]1(C(O)[C@@H]1C=CCCC1)NC(=O)[C@@H]2CCCl (some centres unmarked) [Compound 120066]
P. falciparum Dd2; [1]
  EC50: 47 nM
HepG2 human hepatocytes
  Selectivity Index: 290.28

## CC[C@H]1/C=C/C=C/C[C@@H](C)[C@H](O)[C@@](C)(O)C(=O)[C@@H](C)[C@H](O)[C@@H](C)C(=O)[C@@H](C)[C@H](O)[C@@H](C)/C=C/C(=O)O[C@@H]2[C@H](C)[C@H](CC1)O[C@]1(CC[C@H](C)[C@H](C[C@@H](C)O)O1)[C@H]2C [Compound 120086]
P. falciparum Dd2; [2]
  EC50: 361 nM
HepG2 human hepatocytes
  Selectivity Index: 14.62

## O=C(c1cc(Cl)c(Cl)[nH]1)c1c(O)cccc1O [Compound 130115]
P. falciparum Dd2; [1]
  EC50: 491 nM
HepG2 human hepatocytes
  Selectivity Index: >32

## CC(C)[C@H]1CC[C@@](O)(CCl)[C@H]2C(=O)OCC(C(=O)O)=C[C@H]12 [Compound 130129]
P. falciparum Dd2; [1]
  EC50: 361 nM
HepG2 human hepatocytes
  Selectivity Index: 3

## CC(C)C1CCC(O)(CCl)C2C(=O)OCC(C(=O)O)=CC12 (centres unmarked) [Compound 130130]
P. falciparum Dd2; [1]
  EC50: 469 nM
HepG2 human hepatocytes
  Selectivity Index: 3

## CC(C)[C@H]1CC[C@@](O)(COC(=O)/C(=C/[C@@H]2[C@@H](C(C)C)CCC3(O)COC(=O)[C@@H]23)CO)[C@H]2C(=O)OCC(C(=O)O)=C[C@H]12 (some centres unmarked) [Compound 130131]
P. falciparum Dd2; [2]
  EC50: 367 nM
HepG2 human hepatocytes
  Selectivity Index: >54

## CC[C@H](C)[C@@H](C(=O)O[C@@H](CC(C)C)C(=O)N[C@@H](CC(C)C)C(=O)N[C@@H](C)/C=C/C(=O)N1C(=O)C=C(OC)[C@@H]1C)N(C)C [gallinamide A]
P. falciparum
  IC50: 8400 nM

## Chlamydocin [Compound 130134]
P. falciparum Dd2; Top hits from pure compound library, chloroquine-resistant P. falciparum Dd2, 72 h, read-out: EC50
  EC50: 24.7 nM
HepG2 human hepatocytes
  Selectivity Index: 7
